Experimental data as given in patent US20230122967A1, “NOVEL COMPOUNDS AS INHIBITORS OF PCSK9” (SHENGKE PHARMACEUTICALS (JIANGSU) LTD., priority 2020, published 2023).

Legend:
Format in all cases: cell-based
[1] = tested on: PCSK9 mRNA; experiment: RT-Q-PCR analysis of PCSK9 mRNA in HepG2 cells; settings: Homo sapiens, 24 h, normalized to GAPDH, read-out: HepG2 Q-PCR PCSK9 mRNA level decrease (10 μM)
Procedure: HepG2 cells (ATCC, Cat.: HB-8065) were maintained in Growth medium-Eagle's Minimum Essential Medium (Corning, 10-010-CVR), 10% FBS (Gibco, 10099-141), Penicillin (100 units/mL), Streptomycin ([…]). HepG2 cells were incubated at 37° C., 5% CO2.
Cells were cultured in growth medium as described above and treated with the vehicle, Berberine or test compound for 24 h. The RNA was extracted using the Total RNA mini Kit (Tiangen, Beijing, China) according to the manufacturer's instructions. Reverse transcription was carried out using the High-Capacity cDNA reverse transcription kit (Thermo Fisher Scientific). Quantitative real-time PCR was performed using a reaction mixture containing cDNA, specific primers [PCSK9, 5′-[…]-3′ (forward) and 5′-[…]-3′ (reverse); GAPDH, 5′-[…]-3′ (forward) and 5′-[…]-3′ (reverse)] and Maxima SYBR Green/ROX qPCR Master Mix (Thermo Fisher Scientific). PCR amplification was carried out in a Real-Time PCR System. The real-time PCR conditions were 37° C. 10 min; 95° C. 10 min; 95° C. 15 s, 60° C. 30 s, 72° C. 30 s, 40 cycle. The amount of % RNA was normalized to the GAPDH level in the same samples.

[2] = tested on: PCSK9; experiment: PCSK9 ELISA on HepG2 culture medium; settings: HepG2 cells, 24 hr
Procedure: (§1) HepG2 cells (ATCC, Cat.: HB-8065) were maintained in Growth medium-Eagle's Minimum Essential Medium (Corning, 10-010-CVR), 10% FBS (Gibco, 10099-141), Penicillin (100 units/mL), Streptomycin ([…]). HepG2 cells were incubated at 37° C., 5% CO2. HepG2 cells were plated in flat bottom 96-well plates (Corning, 3599) at 40,000 cells/well in 100 μL of growth media. After an overnight incubation, the culture media were changed to serum-free OptiMEM media (Gibco, 31985-062), 90 μL/well. Vehicle, PF-06446846 hydrochloride, berberine, or test compound was added to the culture media, 10 μL/well. After 24 hr medium was harvested, and 10 μL of the medium were used for the PCSK9 ELISA (R&D Systems, SPC900).

[3] = tested on: HepG2 cells; experiment: Cell viability assay (HepG2 Survival assay, CellTiter-Glo); settings: 24 hr, cellular ATP levels
Procedure: as §1, with “black clear” for “flat”, “3063)” for “3599)”, “cellular ATP levels” for “medium was harvested, and 10 μL of the medium”, “measured using CellTiter-Glo® 2.0 Assay (Promega, G9242).” for “used for the PCSK9 ELISA (R&D Systems, SPC900).”

Compound	inhibition at 10 µM [1] [%]	HepG2 PCSK9 ELISA (10 μM) % inhibition [2] [%]	HepG2 Survival assay (10 μM) [3] [%]
O=C(CN(CC(=O)NC1Cc2ccccc2C1)C(=O)c1cc2ccccc2[nH]1)Nc1ccc(Oc2ccccc2)cc1 [Compound 201-11]	79.3	38	100
O=C(CN(CC(=O)NC1Cc2ccccc2C1)C(=O)c1cc2cccc(F)c2[nH]1)Nc1ccc(Oc2ccc(F)cc2)cc1 [Compound 201-13]	93.3	64	97
CN(C(=O)CN(CC(=O)NC1Cc2ccccc2C1)C(=O)c1cc2cccc(F)c2[nH]1)c1ccc(Oc2ccc(F)cc2)cc1 [Compound 201-14]	89.5	41	93
O=C(CN(CC(=O)NC1Cc2ccccc2C1)C(=O)c1cc2cccc(F)c2[nH]1)Nc1ccc(Oc2ccccc2)cc1 [Compound 201-15]	95.2	46	100
O=C(CN(CC(=O)Nc1ccc(Oc2ccc(F)cc2)cc1)C(=O)c1cc2cc(F)ccc2[nH]1)NCc1ccccc1F [Compound 201-37]	63	50	100
O=C(CN(CC(=O)Nc1ccc(Oc2ccc(F)cc2)cc1)C(=O)c1cc2ccccc2[nH]1)NCc1ccccc1F [Compound 201-41]	75	72	100
O=C(CN(CC(=O)Nc1ccc(Oc2ccccc2)cc1)C(=O)c1cc2ccccc2[nH]1)NCc1ccccc1F [Compound 201-43]	77	60	100
O=C(CN(CC(=O)Nc1ccc(Oc2ccc(F)cc2)cc1)C(=O)c1cc2cccc(F)c2[nH]1)NCc1ccccc1F [Compound 201-45]	80	60	100
CN(C(=O)CN(CC(=O)NCc1ccccc1F)C(=O)c1cc2cccc(F)c2[nH]1)c1ccc(Oc2ccc(F)cc2)cc1 [Compound 201-46]	46	33	100
O=C(CN(CC(=O)Nc1ccc(Oc2ccccc2)cc1)C(=O)c1cc2cccc(F)c2[nH]1)NCc1ccccc1F [Compound 201-47]	90	70	99
CN(Cc1ccccc1)C(=O)CN(CC(=O)Nc1ccc(Oc2ccc(F)cc2)cc1)C(=O)c1cc2c(F)cccc2[nH]1 [Compound 201-49]	77	50	100
CN(Cc1ccccc1)C(=O)CN(CC(=O)N(C)c1ccc(Oc2ccc(F)cc2)cc1)C(=O)c1cc2c(F)cccc2[nH]1 [Compound 201-50]	77	47	100
CN(Cc1ccccc1)C(=O)CN(CC(=O)Nc1ccc(Oc2ccccc2)cc1)C(=O)c1cc2c(F)cccc2[nH]1 [Compound 201-51]	75	55	93
CN(Cc1ccccc1)C(=O)CN(CC(=O)N(C)c1ccc(Oc2ccccc2)cc1)C(=O)c1cc2c(F)cccc2[nH]1 [Compound 201-52]	79	45	100
CN(Cc1ccccc1)C(=O)CN(CC(=O)Nc1ccc(Oc2ccc(F)cc2)cc1)C(=O)c1cc2cc(F)ccc2[nH]1 [Compound 201-53]	80	50	100
CN(Cc1ccccc1)C(=O)CN(CC(=O)N(C)c1ccc(Oc2ccc(F)cc2)cc1)C(=O)c1cc2cc(F)ccc2[nH]1 [Compound 201-54]	61	52	100
CN(Cc1ccccc1F)C(=O)CN(CC(=O)Nc1ccc(Oc2ccc(F)cc2)cc1)C(=O)c1cc2cccc(F)c2[nH]1 [Compound 201-69]	78	80	92
CN(Cc1ccccc1F)C(=O)CN(CC(=O)Nc1ccc(Oc2ccc(F)cc2)cc1)C(=O)c1cc2ccccc2o1 [Compound 201-85]	70	46	100
CN(Cc1ccccc1F)C(=O)CN(CC(=O)Nc1ccc(Oc2ccccc2)cc1)C(=O)c1cc2ccccc2o1 [Compound 201-91]	58	40	100
CN(Cc1ccccc1F)C(=O)CN(CC(=O)Nc1ccc(Oc2ccc(F)c(F)c2)cc1)C(=O)c1cc2ccccc2o1 [Compound 201-97]	37	48	100
CN(Cc1ccccc1F)C(=O)CN(CC(=O)Nc1ccc(Oc2ccc(F)cc2)cc1)C(=O)c1ccc(C(F)(F)F)o1 [Compound 201-103]	85	86	100
CN(Cc1ccccc1F)C(=O)CN(CC(=O)Nc1ccc(Oc2ccccc2)cc1)C(=O)c1ccco1 [Compound 201-127]	92	74	90
CN(Cc1ccccc1F)C(=O)CN(CC(=O)Nc1ccc(Oc2ccc(F)c(F)c2)cc1)C(=O)c1ccco1 [Compound 201-133]	92	98	100
O=C(CN(CC(=O)Nc1ccc(Oc2ccc(C(F)(F)F)cc2)cc1)C(=O)c1ccc(C(F)(F)F)o1)NCc1ccccc1 [Compound 201-209]	–	91	92
CC(C)c1ccc(Oc2ccc(NC(=O)CN(CC(=O)NCc3ccccc3)C(=O)c3ccc(C(F)(F)F)[nH]3)cc2)cc1 [Compound 201-249]	–	85	97
O=C(CN(CC(=O)Nc1ccc(Oc2ccccc2)cc1)C(=O)c1cc2cccc(F)c2[nH]1)Nc1ccccc1 [Compound 201-258]	–	69	97
CC(C)c1ccc(Oc2ccc(NC(=O)CN(CC(=O)Nc3ccccc3)C(=O)c3ccc(C(F)(F)F)o3)cc2)cc1 [Compound 201-261]	–	60	99
O=C(CN(CC(=O)Nc1ccc(Oc2ccc(C(F)(F)F)cc2)cc1)C(=O)c1ccc(C(F)(F)F)[nH]1)Nc1ccccc1 [Compound 201-263]	–	84	88
